Data from ChEMBL document CHEMBL5649169 (ChemMedChem, 2018).

What was measured:
[1] = molecular target: Translation initiation factor eIF2B subunit delta (Homo sapiens) (UniProt Q9UI10)
[2] = molecular target: Non-POU domain-containing octamer-binding protein (Homo sapiens) (UniProt Q15233)
[3] = molecular target: Probable ATP-dependent RNA helicase DDX5 (Homo sapiens) (UniProt P17844)
[4] = molecular target: Tyrosine--tRNA ligase, cytoplasmic (Homo sapiens) (UniProt P54577)
[5] = molecular target: Mitogen-activated protein kinase 9 (Homo sapiens) (UniProt P45984)
[6] = molecular target: Tripeptidyl-peptidase 2 (Homo sapiens) (UniProt P29144)
[7] = molecular target: Serine/threonine-protein kinase NLK (Homo sapiens) (UniProt Q9UBE8)
[8] = molecular target: Ras association domain-containing protein 2 (Homo sapiens) (UniProt P50749)
[9] = molecular target: Protein kinase C delta type (Homo sapiens) (UniProt Q05655)
[10] = molecular target: Heterogeneous nuclear ribonucleoprotein A3 (Homo sapiens) (UniProt P51991)
[11] = molecular target: Transmembrane protein 33 (Homo sapiens) (UniProt P57088)
[12] = molecular target: NADH dehydrogenase [ubiquinone] 1 alpha subcomplex subunit 5 (Homo sapiens) (UniProt Q16718)
[13] = molecular target: Carboxymethylenebutenolidase homolog (Homo sapiens) (UniProt Q96DG6)
[14] = molecular target: Small ribosomal subunit protein uS19 (Homo sapiens) (UniProt P62841)
[15] = molecular target: Mitogen-activated protein kinase 11 (Homo sapiens) (UniProt Q15759)
[16] = molecular target: Serine/threonine-protein kinase Nek1 (Homo sapiens) (UniProt Q96PY6)
[17] = molecular target: N-alpha-acetyltransferase 15, NatA auxiliary subunit (Homo sapiens) (UniProt Q9BXJ9)
[18] = molecular target: Emerin (Homo sapiens) (UniProt P50402)
[19] = molecular target: CDK5 and ABL1 enzyme substrate 1 (Homo sapiens) (UniProt Q8TDN4)
[20] = molecular target: rRNA 2'-O-methyltransferase fibrillarin (Homo sapiens) (UniProt P22087)
[21] = molecular target: Dihydrolipoyllysine-residue acetyltransferase component of pyruvate dehydrogenase complex, mitochondrial (Homo sapiens) (UniProt P10515)
[22] = molecular target: Interleukin-1 receptor-associated kinase 3 (Homo sapiens) (UniProt Q9Y616)
[23] = molecular target: Mitochondrial Rho GTPase 2 (Homo sapiens) (UniProt Q8IXI1)
[24] = molecular target: Cystatin-B (Homo sapiens) (UniProt P04080)
[25] = molecular target: Nucleoprotein TPR (Homo sapiens) (UniProt P12270)
[26] = molecular target: Coiled-coil domain-containing protein 22 (Homo sapiens) (UniProt O60826)
[27] = molecular target: Splicing factor U2AF 35 kDa subunit (Homo sapiens) (UniProt Q01081)
[28] = molecular target: Glycogen synthase kinase-3 beta (Homo sapiens) (UniProt P49841)
[29] = molecular target: Dual specificity tyrosine-phosphorylation-regulated kinase 1A (Homo sapiens) (UniProt Q13627)
[30] = molecular target: Calcium/calmodulin-dependent protein kinase type II subunit beta (Homo sapiens) (UniProt Q13554)
[31] = molecular target: DNA topoisomerase 2-beta (Homo sapiens) (UniProt Q02880)
[32] = molecular target: Calumenin (Homo sapiens) (UniProt O43852)
[33] = molecular target: Leucine-rich repeat flightless-interacting protein 1 (Homo sapiens) (UniProt Q32MZ4)
[34] = molecular target: Elongation factor 2 (Homo sapiens) (UniProt P13639)
[35] = molecular target: Constitutive coactivator of PPAR-gamma-like protein 1 (Homo sapiens) (UniProt Q9NZB2)
[36] = molecular target: Dynein light chain 2, cytoplasmic (Homo sapiens) (UniProt Q96FJ2)
[37] = molecular target: Protein transport protein Sec61 subunit beta (Homo sapiens) (UniProt P60468)
[38] = molecular target: Gamma-tubulin complex component 3 (Homo sapiens) (UniProt Q96CW5)
[39] = molecular target: Kinectin (Homo sapiens) (UniProt Q86UP2)
[40] = molecular target: Serine/arginine-rich splicing factor 1 (Homo sapiens) (UniProt Q07955)
[41] = molecular target: Metal cation symporter ZIP14 (Homo sapiens) (UniProt Q15043)
[42] = molecular target: T-complex protein 1 subunit beta (Homo sapiens) (UniProt P78371)
[43] = molecular target: Coatomer subunit alpha (Homo sapiens) (UniProt P53621)
[44] = molecular target: Activin receptor type-1 (Homo sapiens) (UniProt Q04771)
[45] = molecular target: Nuclear pore complex protein Nup205 (Homo sapiens) (UniProt Q92621)
[46] = molecular target: AP2-associated protein kinase 1 (Homo sapiens) (UniProt Q2M2I8)
Also: assay method not described here.

Transmembrane protein 33 (Homo sapiens), sequence (P57088 whole entry): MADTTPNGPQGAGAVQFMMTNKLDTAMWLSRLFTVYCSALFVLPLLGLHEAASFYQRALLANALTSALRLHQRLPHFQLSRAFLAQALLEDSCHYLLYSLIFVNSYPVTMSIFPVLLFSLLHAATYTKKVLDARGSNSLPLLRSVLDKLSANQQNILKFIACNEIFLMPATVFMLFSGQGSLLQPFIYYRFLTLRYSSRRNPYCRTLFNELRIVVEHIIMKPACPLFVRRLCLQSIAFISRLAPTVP
rRNA 2'-O-methyltransferase fibrillarin (Homo sapiens), sequence (P22087 whole entry): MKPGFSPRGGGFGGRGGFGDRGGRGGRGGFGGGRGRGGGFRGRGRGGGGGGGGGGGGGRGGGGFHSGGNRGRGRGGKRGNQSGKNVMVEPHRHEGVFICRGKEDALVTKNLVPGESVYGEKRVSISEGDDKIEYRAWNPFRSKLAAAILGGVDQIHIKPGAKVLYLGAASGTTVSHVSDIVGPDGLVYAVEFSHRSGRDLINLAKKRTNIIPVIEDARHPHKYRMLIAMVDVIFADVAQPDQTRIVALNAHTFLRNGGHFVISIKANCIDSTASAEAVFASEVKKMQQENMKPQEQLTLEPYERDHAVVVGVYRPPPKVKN
Splicing factor U2AF 35 kDa subunit (Homo sapiens), sequence (Q01081 whole entry): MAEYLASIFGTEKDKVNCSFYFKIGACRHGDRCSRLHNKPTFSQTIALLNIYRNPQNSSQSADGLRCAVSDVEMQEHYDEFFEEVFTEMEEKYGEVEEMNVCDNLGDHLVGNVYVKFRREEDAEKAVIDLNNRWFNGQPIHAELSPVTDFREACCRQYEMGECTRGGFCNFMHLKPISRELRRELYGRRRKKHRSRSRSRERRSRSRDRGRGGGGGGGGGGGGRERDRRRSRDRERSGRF
Emerin (Homo sapiens), sequence (P50402 whole entry): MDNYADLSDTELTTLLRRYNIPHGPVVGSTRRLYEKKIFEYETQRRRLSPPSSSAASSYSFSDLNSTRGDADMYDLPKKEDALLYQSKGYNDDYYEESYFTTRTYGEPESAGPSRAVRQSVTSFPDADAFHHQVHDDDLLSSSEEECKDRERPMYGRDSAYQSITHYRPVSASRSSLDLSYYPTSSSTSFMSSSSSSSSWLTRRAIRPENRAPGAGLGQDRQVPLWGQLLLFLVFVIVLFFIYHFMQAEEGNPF
Tripeptidyl-peptidase 2 (Homo sapiens), sequence (P29144 whole entry): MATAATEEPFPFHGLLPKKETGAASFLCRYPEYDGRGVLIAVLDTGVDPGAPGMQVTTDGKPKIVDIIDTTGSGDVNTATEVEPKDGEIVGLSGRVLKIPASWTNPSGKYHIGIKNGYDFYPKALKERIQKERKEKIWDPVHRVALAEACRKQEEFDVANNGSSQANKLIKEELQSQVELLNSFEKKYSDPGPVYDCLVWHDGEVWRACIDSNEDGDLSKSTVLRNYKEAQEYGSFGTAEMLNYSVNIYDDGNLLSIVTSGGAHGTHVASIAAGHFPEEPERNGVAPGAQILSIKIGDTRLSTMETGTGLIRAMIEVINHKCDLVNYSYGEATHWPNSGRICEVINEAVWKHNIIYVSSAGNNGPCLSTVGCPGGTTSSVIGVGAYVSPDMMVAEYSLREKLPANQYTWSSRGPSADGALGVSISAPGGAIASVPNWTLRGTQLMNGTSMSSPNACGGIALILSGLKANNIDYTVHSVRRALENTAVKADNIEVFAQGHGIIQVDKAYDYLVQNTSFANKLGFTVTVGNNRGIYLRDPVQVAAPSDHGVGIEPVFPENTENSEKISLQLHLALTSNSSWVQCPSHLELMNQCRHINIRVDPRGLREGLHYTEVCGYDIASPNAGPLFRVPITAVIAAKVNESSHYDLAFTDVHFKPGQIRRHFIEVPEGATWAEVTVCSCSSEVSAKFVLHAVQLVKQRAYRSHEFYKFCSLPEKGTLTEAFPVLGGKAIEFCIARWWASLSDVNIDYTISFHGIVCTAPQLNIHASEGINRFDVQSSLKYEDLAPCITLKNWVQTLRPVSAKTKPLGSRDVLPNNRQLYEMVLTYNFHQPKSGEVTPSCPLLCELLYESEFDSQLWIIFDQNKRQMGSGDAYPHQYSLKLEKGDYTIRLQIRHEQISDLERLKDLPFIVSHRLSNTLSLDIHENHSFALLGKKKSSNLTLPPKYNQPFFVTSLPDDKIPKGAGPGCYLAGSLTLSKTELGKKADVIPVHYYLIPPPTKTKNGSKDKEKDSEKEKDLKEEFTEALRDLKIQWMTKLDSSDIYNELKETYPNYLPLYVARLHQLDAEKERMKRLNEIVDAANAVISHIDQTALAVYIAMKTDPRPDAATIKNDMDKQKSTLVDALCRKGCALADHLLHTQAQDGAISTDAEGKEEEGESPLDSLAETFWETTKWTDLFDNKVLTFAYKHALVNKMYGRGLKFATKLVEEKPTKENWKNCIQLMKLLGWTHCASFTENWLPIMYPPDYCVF
T-complex protein 1 subunit beta (Homo sapiens), sequence (P78371 whole entry, one chain of several): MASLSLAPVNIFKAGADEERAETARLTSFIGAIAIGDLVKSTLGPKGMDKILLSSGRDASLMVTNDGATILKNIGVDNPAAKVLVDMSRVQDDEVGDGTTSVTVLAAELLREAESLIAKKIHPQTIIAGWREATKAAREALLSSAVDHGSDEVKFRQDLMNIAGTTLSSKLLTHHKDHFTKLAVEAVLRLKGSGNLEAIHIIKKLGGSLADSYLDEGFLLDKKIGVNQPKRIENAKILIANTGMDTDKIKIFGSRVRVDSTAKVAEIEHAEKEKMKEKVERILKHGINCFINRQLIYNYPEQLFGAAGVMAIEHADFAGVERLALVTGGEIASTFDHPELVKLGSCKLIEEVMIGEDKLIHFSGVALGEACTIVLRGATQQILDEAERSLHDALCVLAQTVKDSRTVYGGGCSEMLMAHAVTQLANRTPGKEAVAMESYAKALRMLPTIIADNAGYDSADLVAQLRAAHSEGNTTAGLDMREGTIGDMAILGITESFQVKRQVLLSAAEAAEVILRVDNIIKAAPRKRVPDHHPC
Mitogen-activated protein kinase 9 (Homo sapiens), sequence (P45984 whole entry, looked up): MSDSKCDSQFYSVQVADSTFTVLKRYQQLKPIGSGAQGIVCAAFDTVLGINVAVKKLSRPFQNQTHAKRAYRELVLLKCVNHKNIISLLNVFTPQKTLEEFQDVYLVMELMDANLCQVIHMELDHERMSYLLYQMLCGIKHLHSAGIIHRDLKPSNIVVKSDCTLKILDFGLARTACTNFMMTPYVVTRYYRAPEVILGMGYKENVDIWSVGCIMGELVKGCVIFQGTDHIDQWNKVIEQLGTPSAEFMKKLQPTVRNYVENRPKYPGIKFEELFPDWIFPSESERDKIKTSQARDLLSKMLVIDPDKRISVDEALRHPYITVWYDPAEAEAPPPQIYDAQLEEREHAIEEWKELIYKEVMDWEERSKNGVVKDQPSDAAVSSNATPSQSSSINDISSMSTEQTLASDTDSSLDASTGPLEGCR
Coatomer subunit alpha (Homo sapiens), sequence (P53621 whole entry): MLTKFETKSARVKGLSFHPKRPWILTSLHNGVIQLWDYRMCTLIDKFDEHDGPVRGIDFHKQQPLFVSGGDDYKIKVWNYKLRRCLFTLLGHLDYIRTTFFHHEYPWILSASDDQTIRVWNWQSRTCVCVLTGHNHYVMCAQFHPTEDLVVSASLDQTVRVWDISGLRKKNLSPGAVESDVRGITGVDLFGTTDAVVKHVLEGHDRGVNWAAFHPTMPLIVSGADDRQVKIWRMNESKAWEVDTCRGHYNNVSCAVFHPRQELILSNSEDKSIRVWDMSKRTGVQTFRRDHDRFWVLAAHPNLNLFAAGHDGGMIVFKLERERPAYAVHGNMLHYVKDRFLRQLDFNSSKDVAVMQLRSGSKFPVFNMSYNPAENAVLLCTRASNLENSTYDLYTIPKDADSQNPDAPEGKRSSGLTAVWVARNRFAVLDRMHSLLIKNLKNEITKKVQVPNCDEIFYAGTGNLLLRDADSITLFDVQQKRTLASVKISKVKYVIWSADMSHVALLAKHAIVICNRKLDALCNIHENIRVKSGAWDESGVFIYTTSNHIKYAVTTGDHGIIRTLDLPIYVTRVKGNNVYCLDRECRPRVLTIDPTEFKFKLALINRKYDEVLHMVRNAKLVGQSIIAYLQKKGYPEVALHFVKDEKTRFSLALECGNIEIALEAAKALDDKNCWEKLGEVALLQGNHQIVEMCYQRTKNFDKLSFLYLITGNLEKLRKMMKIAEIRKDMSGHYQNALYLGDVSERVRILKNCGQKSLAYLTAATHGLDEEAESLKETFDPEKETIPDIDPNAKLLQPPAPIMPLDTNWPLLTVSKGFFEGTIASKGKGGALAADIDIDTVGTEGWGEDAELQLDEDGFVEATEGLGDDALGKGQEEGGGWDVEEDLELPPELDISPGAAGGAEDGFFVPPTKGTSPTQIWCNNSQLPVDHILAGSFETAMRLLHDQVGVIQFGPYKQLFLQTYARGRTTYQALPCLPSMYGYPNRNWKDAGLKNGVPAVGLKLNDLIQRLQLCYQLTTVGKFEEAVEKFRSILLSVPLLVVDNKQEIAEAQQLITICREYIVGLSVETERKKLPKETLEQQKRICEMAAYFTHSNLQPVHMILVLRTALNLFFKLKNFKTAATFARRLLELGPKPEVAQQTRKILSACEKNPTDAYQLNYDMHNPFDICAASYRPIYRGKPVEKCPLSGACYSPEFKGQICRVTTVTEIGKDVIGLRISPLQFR
Activin receptor type-1 (Homo sapiens), sequence (Q04771 whole entry): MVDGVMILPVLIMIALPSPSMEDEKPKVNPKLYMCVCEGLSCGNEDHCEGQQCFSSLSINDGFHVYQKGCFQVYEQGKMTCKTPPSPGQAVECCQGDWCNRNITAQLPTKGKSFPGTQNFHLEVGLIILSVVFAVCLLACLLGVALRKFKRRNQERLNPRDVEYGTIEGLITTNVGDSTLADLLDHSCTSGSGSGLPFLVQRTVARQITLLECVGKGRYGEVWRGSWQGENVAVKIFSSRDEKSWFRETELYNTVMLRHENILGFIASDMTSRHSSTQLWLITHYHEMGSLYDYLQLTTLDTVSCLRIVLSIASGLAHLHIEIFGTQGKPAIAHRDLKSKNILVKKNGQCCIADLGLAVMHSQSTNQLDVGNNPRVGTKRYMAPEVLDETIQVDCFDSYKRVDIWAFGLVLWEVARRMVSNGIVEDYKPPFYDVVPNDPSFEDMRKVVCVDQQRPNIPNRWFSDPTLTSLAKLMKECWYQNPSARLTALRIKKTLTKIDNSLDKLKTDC

**Q.** What does the source list for Cc1ccc(C(=O)Nc2cccc(C(F)(F)F)c2)cc1Nc1nc(-c2cccnc2)nc2nn(C)cc12?
**A.** ED50 [1]: 0.308 µM; ED50 [2]: 0.0517 µM; ED50 [3]: 0.0157 µM; ED50 [4]: 0.0572 µM; ED50 [5]: 13.7 µM; ED50 [6]: 0.487 µM; ED50 [7]: 0.0242 µM; ED50 [8]: 3.43 µM; ED50 [9]: 0.000136 µM; ED50 [10]: 1.07 µM; ED50 [11]: 0.0053 µM; ED50 [12]: 0.253 µM; ED50 [13]: 0.0561 µM; ED50 [14]: 0.0149 µM; ED50 [15]: 6.69 µM; ED50 [16]: 0.000912 µM; ED50 [17]: 2.07 µM; ED50 [18]: 0.501 µM; ED50 [19]: 0.175 µM; ED50 [20]: 0.0214 µM; ED50 [21]: 0.0551 µM; ED50 [22]: 0.0262 µM; ED50 [23]: 97 µM; ED50 [24]: 12.8 µM; ED50 [25]: 7.76 µM; ED50 [26]: 0.598 µM; ED50 [27]: 0.137 µM; ED50 [28]: 0.0177 µM; ED50 [29]: 12.5 µM; ED50 [30]: 0.0059 µM; ED50 [31]: 732 µM; ED50 [32]: 3.41 µM; ED50 [33]: 0.228 µM; ED50 [34]: 12.5 µM; ED50 [35]: 0.00365 µM; ED50 [36]: 0.459 µM; ED50 [37]: 3 µM; ED50 [38]: 0.00173 µM; ED50 [39]: 0.466 µM; ED50 [40]: 0.0562 µM; ED50 [41]: 3.03 µM; ED50 [42]: 0.0532 µM; ED50 [43]: 0.652 µM; ED50 [44]: 34000 µM; ED50 [45]: 1.17 µM; ED50 [46]: 1560 µM

**Q.** With Cc1ccc(C(=O)Nc2cccc(C(F)(F)F)c2)cc1Nc1nc(-c2cccnc2)nc2c1cnn2C as the molecule, how does the ED50 [1] read?
**A.** 9.56 µM

**Q.** What about the ED50 [2] of the same molecule?
**A.** 3.17 µM

**Q.** And the ED50 [3]?
**A.** 1.16 µM

**Q.** What about the ED50 [4] of the same molecule?
**A.** 0.157 µM

**Q.** What about the ED50 [5] of the same molecule?
**A.** 0.0588 µM

**Q.** And the ED50 [6]?
**A.** 53.8 µM

**Q.** And the ED50 [7]?
**A.** 0.00185 µM

**Q.** And the ED50 [8]?
**A.** 0.0164 µM

**Q.** And the ED50 [9]?
**A.** 3.81 µM

**Q.** And the ED50 [10]?
**A.** 0.174 µM

**Q.** And the ED50 [11]?
**A.** 4.89 µM

**Q.** What about the ED50 [12] of the same molecule?
**A.** 5.05 µM

**Q.** What about the ED50 [13] of the same molecule?
**A.** 0.671 µM

**Q.** What about the ED50 [14] of the same molecule?
**A.** 4.04 µM

**Q.** What about the ED50 [15] of the same molecule?
**A.** 0.0255 µM

**Q.** What about the ED50 [16] of the same molecule?
**A.** 1.87 µM

**Q.** And the ED50 [17]?
**A.** 11.7 µM

**Q.** What about the ED50 [18] of the same molecule?
**A.** 45.5 µM

**Q.** And the ED50 [19]?
**A.** 0.993 µM

**Q.** What about the ED50 [20] of the same molecule?
**A.** 5.44 µM

**Q.** What about the ED50 [21] of the same molecule?
**A.** 2.58 µM

**Q.** And the ED50 [22]?
**A.** 1.34 µM

**Q.** And the ED50 [23]?
**A.** 1.14 µM

**Q.** What about the ED50 [24] of the same molecule?
**A.** 6.95 µM

**Q.** What about the ED50 [25] of the same molecule?
**A.** 10.4 µM

**Q.** What about the ED50 [26] of the same molecule?
**A.** 2.25 µM

**Q.** And the ED50 [27]?
**A.** 0.000531 µM

**Q.** What about the ED50 [28] of the same molecule?
**A.** 4.03 µM

**Q.** What about the ED50 [29] of the same molecule?
**A.** 0.102 µM

**Q.** What about the ED50 [30] of the same molecule?
**A.** 17.4 µM

**Q.** What about the ED50 [31] of the same molecule?
**A.** 3.18 µM

**Q.** And the ED50 [32]?
**A.** 1.72 µM

**Q.** And the ED50 [33]?
**A.** 3.51 µM

**Q.** What about the ED50 [34] of the same molecule?
**A.** 4.03 µM

**Q.** What about the ED50 [35] of the same molecule?
**A.** 4.66 µM

**Q.** What about the ED50 [36] of the same molecule?
**A.** 0.148 µM

**Q.** What about the ED50 [37] of the same molecule?
**A.** 11.5 µM

**Q.** And the ED50 [38]?
**A.** 10.2 µM

**Q.** And the ED50 [39]?
**A.** 4.85 µM

**Q.** What about the ED50 [40] of the same molecule?
**A.** 9.12 µM

**Q.** And the ED50 [41]?
**A.** 0.00337 µM

**Q.** What about the ED50 [42] of the same molecule?
**A.** 0.0178 µM

**Q.** What about the ED50 [43] of the same molecule?
**A.** 0.127 µM

**Q.** And the ED50 [44]?
**A.** 0.00315 µM

**Q.** What about the ED50 [45] of the same molecule?
**A.** 2.26 µM

**Q.** And the ED50 [46]?
**A.** 6.19 µM
